According to publication PMC8003975 (Cancers, 2021):

What was measured:
[1] = parameters: method as in PMID 28441771, PMID 29231907, PMID 28587113; details: preclinical and clinical studies; cited from earlier work
[2] = literature-reported biology of the tentatively identified metabolite; no reference given; cited from earlier work
Cal27 and JHU029 cells = test: HNC cell cytotoxicity assay of other bitter melon compounds (Figure S1); format: cell-based, human; details: 48 hr
Experimental: Cal27, JHU029, JHU022 and NOK were seeded in 96 well-plate (5000 cells/well) and cells were treated with different concentration of M-I for 48 h. There were untreated control and DMSO treated vehicle control group for comparison. Cytotoxicity assay was performed using Cell Counting Kit-8 (Dojindo Molecular Technology, Rockville, MD, USA) according to manufacturer instruction.
Supplementary Materials: Momordicine-I, a Bitter
Activity in Head and Neck Cancer Involving c-Met
Figure S1. Cal27 and JHU029 ells were treated with momordicine-I (M-I), momordicosideK (MK), karavilageninD (KD) at indicated doses for 48 hr and cytotoxicity assay was performed. Small bar indicates standard error.
Figure S2. Whole blot for Figure 2A. […]

| Molecule | Reported Biology [2] | further results |
| --- | --- | --- |
| COc1cc2c(Oc3ccc(NC(=O)C4(C(=O)Nc5ccc(F)cc5)CC4)cc3F)ccnc2cc1OCCCN1CCOCC1 [Foretinib] |  | adverse side effects [1]: fatigue, hypertension, and gastrointestinal toxicities |
| C[C@H](C[C@@H](O)[C@H](O)C(C)(C)O)[C@H]1CC[C@@]2(C)[C@@H]3C=C[C@@]45OC[C@]3(CC[C@]12C)[C@@H]4CC[C@H](O[C@@H]1O[C@H](CO)[C@@H](O)[C@@H](O)[C@H]1O)C5(C)C [Karaviloside XI] | Antidiabetic |  |
| COC(C)(C)/C=C/C[C@@H](C)[C@H]1CC[C@@]2(C)[C@@H]3[C@@H](O[C@@H]4O[C@H](CO)[C@@H](O)[C@H](O)[C@H]4O)C=C4[C@@H](CC[C@H](O)C4(C)C)[C@]3(C=O)CC[C@]12C [MK, momordicoside K] |  | amount required for ~40% cell death (Cal27 and JHU029 cells): > 50 µg/mL |
| Sacranoside A | nitric oxide inhibitory effect |  |
| CO[C@H]1C=C2[C@@H](CC[C@H](O[C@@H]3O[C@H](CO)[C@@H](O)[C@@H](O)[C@H]3O)C2(C)C)[C@]2(C)CC[C@]3(C)[C@@H]([C@H](C)C/C=C/C(C)(C)O)CC[C@@]3(C)[C@H]12 [Karaviloside III] | cytotoxic activity against Hep3B and HepG2 cell lines |  |
| C[C@H](C/C=C/C(C)(C)O)[C@H]1CC[C@@]2(C)[C@@H]3[C@@H](O[C@@H]4O[C@H](CO)[C@@H](O)[C@H](O)[C@H]4O)C=C4[C@@H](CC[C@H](O)C4(C)C)[C@]3(C=O)CC[C@]12C [Momordicoside L] | Weak α-glucosidase inhibition |  |
| C[C@H](C/C=C/C(C)(C)O)[C@H]1CC[C@@]2(C)[C@@H]3C=C[C@@]45OC(=O)[C@]3(CC[C@]12C)[C@@H]4CC[C@H](O)C5(C)C [KD, karavilagenin D] |  | amount required for ~40% cell death (Cal27 and JHU029 cells): > 50 µg/mL |
| CN1CCN(C2CCN(C(=O)Nc3cc(Oc4ccc(NC(=O)C5(C(=O)Nc6ccc(F)cc6)CC5)c(F)c4)ccn3)CC2)CC1 [Golvatinib] |  | adverse side effects [1]: supraventricular tachycardia, convulsion, and pulmonary embolism |
